Laboratory results reported in US9884801B2, “Compounds from antrodia camphorata, method for preparing the same and use thereof” (ONENESS BIOTECH CO.,LTD., priority 2014, dated 2018).
Values after ≈ are worked out from the molar mass of the structure shown. Like-named read-outs stand apart in the source and are kept apart here.

Assays:
Format in all cases: cell-based
U251 (Brain, Glioma) = assay: SRB anti-proliferation assay, U251; settings: Homo sapiens, U-251
Procedure: (§1) Various cell lines (5×10^3 cells/well) were sub-cultured onto 96-well plates and starved with serum-free medium for 48 h. Then cells were incubated in medium with 10% FBS in the absence or presence of various concentrations of AC006, AC007, AC009, and AC012 (0.1, 0.3, 1, 3, 10, and 30 μg/ml) for 48 hours. After treatment, the medium was discarded firstly. […]. In order to fix the adherent cells, 100 μl of trichloroacetic acid (10% (w/v)) were adding to each well and incubating at 4° C. for 1 hour. Then the plates were then washed with deionized water and dried in the air. Each well were added with 50 μl of Sulforhodamine B (SRB) solution (0.4% w/v in 1% acetic acid) and incubated for 5 min at room temperature. To remove unbound SRB in the plates, the plates were washed with 1% acetic acid and then air dried. The residual bound SRB was solubilized with 100 μl of 10 mM Tris base buffer (pH 10.5), and then read using a micro titer plate reader at 495 nm.

Sk-Hep-1 (Liver) = assay: SRB anti-proliferation assay, Sk-Hep-1; settings: Homo sapiens, SK-HEP1; Sk-Hep-1, 48 hours
Procedure: as §1

LN-229 (Brain, Glioma) = assay: SRB anti-proliferation assay, LN-229; settings: Homo sapiens; for IC50: LN-229, 48 hours
Procedure: as §1

PC3 (Prostate) = assay: SRB anti-proliferation assay, PC3; settings: PC3, 48 hours
Procedure: as §1

A549 (Lung) = assay: SRB anti-proliferation assay, A549; settings: Homo sapiens; for IC50: A549, 48 hours; for inhibition at 10 µg/mL: A549, in 10 μg/ml
Procedure: as §1

U87 (Brain, Glioma) = assay: SRB anti-proliferation assay, U87
Procedure: as §1

B16F10 (Melanoma) = assay: SRB anti-proliferation assay, B16F10; settings: Mus musculus, B16-F10; B16F10, 48 hours
Procedure: as §1

Huh-7 (Liver) = assay: SRB anti-proliferation assay, Huh-7; settings: Homo sapiens; for IC50: Huh-7, 48 hours; for inhibition at 0.3 µg/mL: Huh-7, in 0.3 μg/ml
Procedure: as §1

SW-480 (Colon rectal) = assay: SRB anti-proliferation assay, SW-480; settings: Homo sapiens; for IC50: SW480, 48 h, SW-480, 48 hours, read-out: IC50; for inhibition at 10 µg/mL: SW480, SW-480, in 10 μg/ml
Procedure: as §1

DLD-1 (Colorectal) = assay: SRB anti-proliferation assay, DLD-1; settings: for inhibition at 10 µg/mL: DLD-1, in 10 μg/ml
Procedure: as §1

RKO (Colorectal) = assay: SRB anti-proliferation assay, RKO; settings: for inhibition at 10 µg/mL: in 10 μg/ml
Procedure: as §1

HCT-116 (Colon rectal) = assay: SRB anti-proliferation assay, HCT-116; settings: Homo sapiens; for IC50: HCT-116, 48 hours; for inhibition at 0.3 µg/mL: HCT-116, in 0.3 μg/ml
Procedure: as §1

4T-1 (Breast) = assay: SRB anti-proliferation assay, 4T-1; settings: 4T-1, 48 hours
Procedure: as §1

[1] = Homo sapiens, DLD-1, 48 h, read-out: IC50

Structure (SMILES)	IC50 (LN-229 (Brain, Glioma))	IC50 (PC3 (Prostate))	IC50 (A549 (Lung))	inhibition at 10 µg/mL (A549 (Lung))	IC50 (B16F10 (Melanoma))	IC50 (Huh-7 (Liver))	IC50 (SW-480 (Colon rectal))	inhibition at 10 µg/mL (SW-480 (Colon rectal))	IC50 (DLD-1 (Colorectal); [1])	inhibition at 10 µg/mL (DLD-1 (Colorectal); Homo sapiens)	IC50 (RKO (Colorectal); 48 h, read-out: IC50)	inhibition at 10 µg/mL (RKO (Colorectal))	IC50 (HCT-116 (Colon rectal))	inhibition at 0.3 µg/mL (HCT-116 (Colon rectal))	inhibition at 0.3 µg/mL (Huh-7 (Liver))	further results
COC1=C(OC)[C@H](OC(C)=O)[C@H](C/C=C(\C)CC/C=C(\C)C[C@H](O)C=C(C)C)[C@@H](C)C1=O [AC006]	> 30 µg/mL	19.7 µg/mL (≈ 43.9 µM)	> 10 µg/mL	12.2%	28.7 µg/mL (≈ 64 µM)	0.72 µg/mL (≈ 1.6 µM)										IC50 (U251 (Brain, Glioma); U251, 48 hours): > 30 µg/mL; inhibition at 30 µg/mL (U251 (Brain, Glioma); U251, in 30 μg/ml): 22.6%; IC50 (Sk-Hep-1 (Liver)): 26.8 µg/mL (≈ 59.7 µM); inhibition at 30 µg/mL (LN-229 (Brain, Glioma); LN-229, in 30 μg/ml): 22.6%; IC50 (U87 (Brain, Glioma); U87, 48 hours): > 30 µg/mL; inhibition at 30 µg/mL (U87 (Brain, Glioma); U87, in 30 μg/ml): 11.3%
COC1=C(OC)[C@H](O)[C@H](C/C=C(\C)CC/C=C(\C)C/C=C/C(C)(C)O)[C@@H](C)C1=O [AC007-H1]			1.69 µg/mL (≈ 4.16 µM)			< 0.3 µg/mL	> 10 µg/mL	18.2%	> 10 µg/mL	16.1%	> 10 µg/mL	33%	< 0.3 µg/mL	59.5%	85.2%	
COC1=C(OC)[C@H](OC(C)=O)[C@H](C/C=C(\C)CC/C=C(\C)C/C=C/C(C)(C)O)[C@@H](C)C1=O [AC007]	> 25 µg/mL	22.1 µg/mL (≈ 49.2 µM)	3.57 µg/mL (≈ 7.96 µM)		23.4 µg/mL (≈ 52.3 µM)	0.88 µg/mL (≈ 1.96 µM)	> 10 µg/mL	21.5%	19.7 µg/mL (≈ 44 µM)	25.6%	17.6 µg/mL (≈ 39.2 µM)	29.5%	0.93 µg/mL (≈ 2.07 µM)			IC50 (DLD-1 (Colorectal); DLD-1, 48 hours): > 10 µg/mL; inhibition at 25 µg/mL (LN-229 (Brain, Glioma); LN-229, in 25 μg/ml): 19.1%; IC50 (RKO (Colorectal); 48 hours): > 10 µg/mL; IC50 (4T-1 (Breast)): 24.8 µg/mL (≈ 55.3 µM)
COC1=C(OC)[C@H](O)[C@H](C/C=C(\C)CC/C=C(\C)CC/C=C(\C)CO)[C@@H](C)C1=O [AC009-H1]			> 10 µg/mL	40.8%		< 0.3 µg/mL	> 10 µg/mL	4.01%	> 10 µg/mL	11%	> 10 µg/mL	8.79%	< 0.3 µg/mL	54.4%	90.6%	
